This is an account of results in patent US11246945B2, “Cisplatin-loaded microbubbles, pharmaceutical composition for treatment of cancer, method for preparing pharmaceutical compositions and method for treating cancer” (National Defense Medical Center, priority 2019, dated 2022).

Molecules are shown by their SMILES.

The subject of series [1] is FaDu-fLuc/GFP tumor xenograft. As to the kind of experiment: Anti-tumor effect on head and neck cancer xenograft (IVIS bioluminescence). The class given is in vivo, SCID mice. As to conditions: Day 33; without ultrasound exposure. On the procedure: Severe combined immunodeficiency (SCID) mice were subcutaneously implanted with luminescence-labelled hypopharynx carcinoma cell line (FaDu-fLuc/GFP) (2×10^6 cells/mouse) into the right flank region on Day 0. On Day 4, tumor xenograft formation and size in implanted SCID mice were determined by IVIS® bioluminescence imaging system (version 4.4, Caliper Life Sciences, Alameda, Calif., USA). The implanted SCID mice were then classified into group I to group V (hereinafter referred to as “Gps I-V”), and the implanted SCID mice of each group were treated with different pharmaceutical compositions, which are summarized in Table 6 below. Specifically, the mice of Gp I was the control group, and was treated with saline. The mice of Gp II were treated with cisplatin dissolved in saline. The mice of Gp III were treated with saline containing the mixture of cisplatin and albumin microbubbles (concentration: 1.4×10^8 particles/mL), followed by ultrasound exposure (power: 3 W/cm^2, 30 seconds). […] The anti-tumor effect of cisplatin-based chemotherapy was evaluated in vivo on the growth of head and neck cancer by twice-weekly recordings of luciferase bioluminescence data derived from IVIS® images. On day 33, after the IVIS® images of the mice were obtained, the mice were sacrificed and analysed.

The nature of series [2]: Body weight during the 33-day treatment. Type of series: in vivo, SCID mice. As to conditions: 33-day treatment period; without ultrasound. The procedure:
Severe combined immunodeficiency (SCID) mice were subcutaneously implanted with luminescence-labelled hypopharynx carcinoma cell line (FaDu-fLuc/GFP) (2×10^6 cells/mouse) into the right flank region on Day 0. On Day 4, tumor xenograft formation and size in implanted SCID mice were determined by IVIS® bioluminescence imaging system (version 4.4, Caliper Life Sciences, Alameda, Calif., USA). The implanted SCID mice were then classified into group I to group V (hereinafter referred to as “Gps I-V”), and the implanted SCID mice of each group were treated with different pharmaceutical compositions, which are summarized in Table 6 below. Specifically, the mice of Gp I was the control group, and was treated with saline. The mice of Gp II were treated with cisplatin dissolved in saline. The mice of Gp III were treated with saline containing the mixture of cisplatin and albumin microbubbles (concentration: 1.4×10^8 particles/mL), followed by ultrasound exposure (power: 3 W/cm^2, 30 seconds). […] The anti-tumor effect of cisplatin-based chemotherapy was evaluated in vivo on the growth of head and neck cancer by twice-weekly recordings of luciferase bioluminescence data derived from IVIS® images. On day 33, after the IVIS® images of the mice were obtained, the mice were sacrificed and analysed. […]

The next series relates to head and neck cancers. To be noted: patients with head and neck cancers; cited from earlier work.
For series [3] the following is noted: intraperitoneal, single 14 mg/kg or 4.6 mg/kg/day for three consecutive days; cited from earlier work.

For `N.N.[Cl][Pt][Cl]` [CDDP, Cis-Diamine platinum (II) Dichloride], in series [1], the “Tumor reduction / inhibition of tumor growth (luminescence flux)” value is reported as “significantly better outcomes as compared to Gp IV”. Moreover, in series [2], the “Body weight gain compared with Gp I, Gp IV and Gp V” value is recorded as “statistically smaller body weight gain”. Besides, the Median survival time in the series with head and neck cancers was 151 days. In addition, the Hearing threshold result in series [3] was “caused a hearing threshold shift”.
